From patent EP0071087A1, “Improved determination of creatine phosphokinase in body fluids” (SERAGEN DIAGNOSTICS, INC., priority 1981, dated 1983)
One block for each compound: values may come before it.

Target: T1, Purified Human Erythrocyte Adenylate Kinase (Homo sapiens, UniProt P00568)
T1 construct: from tissue; host or cells: human erythrocytes
T1 sequence (P00568 1-194): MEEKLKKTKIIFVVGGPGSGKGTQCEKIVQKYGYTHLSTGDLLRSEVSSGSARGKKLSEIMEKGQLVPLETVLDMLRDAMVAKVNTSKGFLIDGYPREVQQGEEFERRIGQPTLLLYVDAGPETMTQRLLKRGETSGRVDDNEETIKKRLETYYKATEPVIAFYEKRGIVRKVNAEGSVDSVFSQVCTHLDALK
Assay: Inhibition of purified human erythrocyte adenylate kinase in a CPK-UV (Oliver-Rosalki) assay
Format: biochemical
Conditions: 37°C
Description: Table I illustrates the utilization of a high AMP/ ADP ratio in inhibiting purified human erythrocyte adenylate kinase. Residual AK activity is measured in reagent systems containing all necessary components of the Oliver-Rosalki CPK assay. The systems vary as a function of three components: AMP, ADP, and sodium fluoride. The data points cover a 1.43-5.72m Mole/liter ADP range and a 2.9-29.2m Mole/liter AMP range plus or minus 6m Mole/ liter NaF.
The reagents of Example 1 and 2 were utilized with the AMP and ADP concentration listed in the table, with or without 6 m mole/liter sodium fluoride.

Measured Residual Adenylate Kinase (+NaF) (ADP 1.43 mM, AMP 2.9 mM, AMP/ADP 2.0, 6 m mole/liter NaF): 24 U/l
Measured Residual Adenylate Kinase (-NaF) (ADP 1.43 mM, AMP 2.9 mM, AMP/ADP 2.0, no NaF): 103 U/l
Measured Residual Adenylate Kinase (+NaF) (ADP 1.43 mM, AMP 5.8 mM, AMP/ADP 4.1, 6 m mole/liter NaF): 13 U/l
Measured Residual Adenylate Kinase (-NaF) (ADP 1.43 mM, AMP 5.8 mM, AMP/ADP 4.1, no NaF): 61 U/l
Measured Residual Adenylate Kinase (+NaF) (ADP 1.43 mM, AMP 7.3 mM, AMP/ADP 5.1, 6 m mole/liter NaF): 10 U/l
Measured Residual Adenylate Kinase (-NaF) (ADP 1.43 mM, AMP 7.3 mM, AMP/ADP 5.1, no NaF): 56 U/l
Measured Residual Adenylate Kinase (+NaF) (ADP 1.43 mM, AMP 10.2 mM, AMP/ADP 7.1, 6 m mole/liter NaF): 7.7 U/l
Measured Residual Adenylate Kinase (-NaF) (ADP 1.43 mM, AMP 10.2 mM, AMP/ADP 7.1, no NaF): 35 U/l
Measured Residual Adenylate Kinase (+NaF) (ADP 1.43 mM, AMP 14.6 mM, AMP/ADP 10.2, 6 m mole/liter NaF): 5.3 U/l
Measured Residual Adenylate Kinase (-NaF) (ADP 1.43 mM, AMP 14.6 mM, AMP/ADP 10.2, no NaF): 333 U/l
Measured Residual Adenylate Kinase (+NaF) (ADP 1.43 mM, AMP 21.9 mM, AMP/ADP 15.3, 6 m mole/liter NaF): 4.6 U/l
Measured Residual Adenylate Kinase (-NaF) (ADP 1.43 mM, AMP 21.9 mM, AMP/ADP 15.3, no NaF): 19 U/l
Measured Residual Adenylate Kinase (+NaF) (ADP 1.43 mM, AMP 29.2 mM, AMP/ADP 20.4, 6 m mole/liter NaF): 1.7 U/l
Measured Residual Adenylate Kinase (-NaF) (ADP 1.43 mM, AMP 29.2 mM, AMP/ADP 20.4, no NaF): 17 U/l
Measured Residual Adenylate Kinase (+NaF) (ADP 2.86 mM, AMP 2.9 mM, AMP/ADP 1.0, 6 m mole/liter NaF): 51 U/l
Measured Residual Adenylate Kinase (-NaF) (ADP 2.86 mM, AMP 2.9 mM, AMP/ADP 1.0, no NaF): 166 U/l
Measured Residual Adenylate Kinase (+NaF) (ADP 2.86 mM, AMP 5.8 mM, AMP/ADP 2.0, 6 m mole/liter NaF): 26 U/l
Measured Residual Adenylate Kinase (-NaF) (ADP 2.86 mM, AMP 5.8 mM, AMP/ADP 2.0, no NaF): 126 U/l
Measured Residual Adenylate Kinase (+NaF) (ADP 2.86 mM, AMP 7.3 mM, AMP/ADP 2.6, 6 m mole/liter NaF): 22 U/l
Measured Residual Adenylate Kinase (-NaF) (ADP 2.86 mM, AMP 7.3 mM, AMP/ADP 2.6, no NaF): 93 U/l
Measured Residual Adenylate Kinase (+NaF) (ADP 2.86 mM, AMP 10.2 mM, AMP/ADP 3.6, 6 m mole/liter NaF): 17 U/l
Measured Residual Adenylate Kinase (-NaF) (ADP 2.86 mM, AMP 10.2 mM, AMP/ADP 3.6, no NaF): 84 U/l
Measured Residual Adenylate Kinase (+NaF) (ADP 2.86 mM, AMP 14.6 mM, AMP/ADP 5.1, 6 m mole/liter NaF): 13 U/l
Measured Residual Adenylate Kinase (-NaF) (ADP 2.86 mM, AMP 14.6 mM, AMP/ADP 5.1, no NaF): 64 U/l
Measured Residual Adenylate Kinase (+NaF) (ADP 2.86 mM, AMP 21.9 mM, AMP/ADP 7.7, 6 m mole/liter NaF): 10 U/l
Measured Residual Adenylate Kinase (-NaF) (ADP 2.86 mM, AMP 21.9 mM, AMP/ADP 7.7, no NaF): 32 U/l
Measured Residual Adenylate Kinase (+NaF) (ADP 2.86 mM, AMP 29.2 mM, AMP/ADP 10.2, 6 m mole/liter NaF): 5.3 U/l
Measured Residual Adenylate Kinase (-NaF) (ADP 2.86 mM, AMP 29.2 mM, AMP/ADP 10.2, no NaF): 28 U/l
Measured Residual Adenylate Kinase (+NaF) (ADP 5.72 mM, AMP 2.9 mM, AMP/ADP 0.51, 6 m mole/liter NaF): 108 U/l
Measured Residual Adenylate Kinase (-NaF) (ADP 5.72 mM, AMP 2.9 mM, AMP/ADP 0.51, no NaF): 203 U/l
Measured Residual Adenylate Kinase (+NaF) (ADP 5.72 mM, AMP 5.8 mM, AMP/ADP 1.0, 6 m mole/liter NaF): 55 U/l
Measured Residual Adenylate Kinase (-NaF) (ADP 5.72 mM, AMP 5.8 mM, AMP/ADP 1.0, no NaF): 186 U/l
Measured Residual Adenylate Kinase (+NaF) (ADP 5.72 mM, AMP 7.3 mM, AMP/ADP 1.3, 6 m mole/liter NaF): 54 U/l
Measured Residual Adenylate Kinase (-NaF) (ADP 5.72 mM, AMP 7.3 mM, AMP/ADP 1.3, no NaF): 126 U/l
Measured Residual Adenylate Kinase (+NaF) (ADP 5.72 mM, AMP 10.2 mM, AMP/ADP 1.8, 6 m mole/liter NaF): 37 U/l
Measured Residual Adenylate Kinase (-NaF) (ADP 5.72 mM, AMP 10.2 mM, AMP/ADP 1.8, no NaF): 114 U/l
Measured Residual Adenylate Kinase (+NaF) (ADP 5.72 mM, AMP 14.6 mM, AMP/ADP 2.6, 6 m mole/liter NaF): 31 U/l
Measured Residual Adenylate Kinase (-NaF) (ADP 5.72 mM, AMP 14.6 mM, AMP/ADP 2.6, no NaF): 108 U/l
Measured Residual Adenylate Kinase (+NaF) (ADP 5.72 mM, AMP 21.9 mM, AMP/ADP 3.8, 6 m mole/liter NaF): 21 U/l
Measured Residual Adenylate Kinase (-NaF) (ADP 5.72 mM, AMP 21.9 mM, AMP/ADP 3.8, no NaF): 66 U/l
Measured Residual Adenylate Kinase (+NaF) (ADP 5.72 mM, AMP 29.2 mM, AMP/ADP 5.1, 6 m mole/liter NaF): 13 U/l
Measured Residual Adenylate Kinase (-NaF) (ADP 5.72 mM, AMP 29.2 mM, AMP/ADP 5.1, no NaF): 62 U/l
Compound: Nc1ncnc2c1ncn2[C@@H]1O[C@H](COP(=O)(O)O)[C@@H](O)[C@H]1O [AMP, adenosine monophosphate]

Compound: sodium fluoride [NaF]
Measured Residual Adenylate Kinase (+NaF) (ADP 1.43 mM, AMP 0 mM, 6 m mole/liter NaF): 327 U/l
Measured Residual Adenylate Kinase (+NaF) (ADP 2.86 mM, AMP 0 mM, 6 m mole/liter NaF): 398 U/l
Measured Residual Adenylate Kinase (+NaF) (ADP 5.72 mM, AMP 0 mM, 6 m mole/liter NaF): 460 U/l
